Molecules are shown by their SMILES. pIC50: −log10 of the molar value. A value given as a limit tells only on which side of the number the result lay.

The text below walks through data of US11174232B2, “Substituted heterocyclyl derivatives as CDK inhibitors” (Aurigene Discovery Technologies Limited, priority 2015, dated 2021).

This experiment has as its target CDK7/CycH/MNAT1 (Homo sapiens (Human), UniProt P50613). As to the kind of experiment: Biochemical Assay for CDK7 (TR-FRET kinase assay). As to conditions: 60 min pre-incubation with kinase, 1 mM ATP; for inhibition at 10 µM / % inhibition @ 10 μM: 10 μM compound. As for the experimental part: Biochemical Assay for CDK7:
The ability of compounds to inhibit CDK7 kinase activity was tested in a TR-FRET assay using 5 nM of CDK7/CycH/MNAT1 obtained from Invitrogen, USA. Test compounds were pre-incubated with the kinase at room temperature for 60 min. After the incubation, substrate mix [100 nM Ultra-light MBP (Perkin Elmer, USA) and 1 mM ATP (Sigma)] was added. The above reaction was stopped by the addition of 40 mM EDTA after 60 minutes of kinase reaction. 1 nM Eu-labelled antiphospho-MBP antibody [Perkin Elmer, USA] was added, mixed well and the fluorescence emission at 615 nm and 665 nm [excitation at 340 nm] was measured. The final DMSO concentration in the assay was 1%. For IC50 determination, appropriate concentrations were made by ⅓^rd serial dilutions of 10 mM DMSO stock solution of test compound. All the fluorescence measurements were made in a Victor 3 Multilabel Counter [Perkin Elmer, USA]. The IC50 was determined by fitting the dose response data to sigmoidal curve fitting equation using GraphPad Prism software V5. To identify compounds that inhibit CDK7 irreversibly, time depended inhibition studies were carried by pre-incubating compound with the enzyme at three time points (20, 60 and 180 min) and carrying out assay as described above.
The compounds were screened by the above mentioned assay procedure.
Background: Time-resolved FRET reads energy transfer from a long-lived donor to a nearby acceptor.

CDK7/CycH/MNAT1, sequence (P50613 whole entry): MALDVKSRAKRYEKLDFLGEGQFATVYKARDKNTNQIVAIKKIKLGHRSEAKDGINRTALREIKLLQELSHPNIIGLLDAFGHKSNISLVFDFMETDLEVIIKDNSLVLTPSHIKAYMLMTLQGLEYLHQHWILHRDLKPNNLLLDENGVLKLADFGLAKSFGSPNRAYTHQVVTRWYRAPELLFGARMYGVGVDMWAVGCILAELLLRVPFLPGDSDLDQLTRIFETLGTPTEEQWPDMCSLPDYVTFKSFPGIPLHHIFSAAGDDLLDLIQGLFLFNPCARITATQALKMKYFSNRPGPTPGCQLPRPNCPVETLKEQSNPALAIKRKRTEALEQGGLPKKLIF
CDK7/CycH/MNAT1, sequence (P51946 whole entry partner): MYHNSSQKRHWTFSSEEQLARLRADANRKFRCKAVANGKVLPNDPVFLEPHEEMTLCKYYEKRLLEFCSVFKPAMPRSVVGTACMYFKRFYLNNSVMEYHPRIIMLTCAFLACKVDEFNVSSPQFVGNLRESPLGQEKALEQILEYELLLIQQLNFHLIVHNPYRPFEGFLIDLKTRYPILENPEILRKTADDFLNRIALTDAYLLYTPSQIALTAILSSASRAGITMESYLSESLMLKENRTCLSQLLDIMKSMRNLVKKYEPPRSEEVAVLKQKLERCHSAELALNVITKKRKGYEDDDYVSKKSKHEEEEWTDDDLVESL
CDK7/CycH/MNAT1, sequence (P51948 whole entry partner): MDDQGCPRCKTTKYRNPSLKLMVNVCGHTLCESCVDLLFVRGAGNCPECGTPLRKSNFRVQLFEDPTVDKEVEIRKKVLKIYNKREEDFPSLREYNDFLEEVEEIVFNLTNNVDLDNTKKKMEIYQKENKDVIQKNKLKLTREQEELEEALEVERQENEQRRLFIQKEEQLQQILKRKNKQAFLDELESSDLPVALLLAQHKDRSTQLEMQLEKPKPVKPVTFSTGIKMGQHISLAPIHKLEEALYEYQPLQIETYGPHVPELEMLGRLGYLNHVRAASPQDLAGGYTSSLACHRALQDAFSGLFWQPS

A word on the inhibition: it is the drop in the measured response relative to a control, in per cent. The term pIC50 denotes the IC50 on a negative log10 scale, so that one unit is a factor of ten. High values mean a low IC50, low ones a high IC50. For `C=CC(=O)Nc1ccc(-c2cccc(C(C)C(=O)Nc3cc(C4CC4)[nH]n3)c2)cc1` (stereo not drawn) [Compound 18, N-(3′-(1-((5-cyclopropyl-1H-pyrazol-3-yl)amino)-1-oxopropan-2-yl)-[1,1′-biphenyl]-4-yl)acrylamide], the inhibition at 10 µM was 95% and the pIC50 is < 7.00.

Regarding `COCCN(C)C/C=C/C(=O)Nc1ccc(-c2cccc(C(C)C(=O)Nc3cc(C4CC4)[nH]n3)c2)cn1` (stereo not drawn) [Compound 68, (E)-N-(5-(3-(1-((5-cyclopropyl-1H-pyrazol-3-yl)amino)-1-oxopropan-2-yl)phenyl)pyridin-2-yl)-4-((2-methoxyethyl)(methyl)amino)but-2-enamide], the inhibition at 10 µM was found to be 95% and the negative logarithm of the IC50 (pIC50) is > 7.60.

As to `CC(C(=O)Nc1cc(C2CCC2)[nH]n1)c1cccc(-c2ccc(NC(=O)/C=C/CN(C)C)cc2)c1` (stereo not drawn) [Compound 15, (E)-N-(3′-(1-((5-cyclobutyl-1H-pyrazol-3-yl)amino)-1-oxopropan-2-yl)-[1,1′-biphenyl]-4-yl)-4-(dimethylamino)but-2-enamide], the inhibition at 10 µM is 93% and the pIC50 is > 7.60.

On to `CC(C(=O)Nc1cc(C2CC2)[nH]n1)c1cc(-c2ccc(NC(=O)/C=C/CN(C)C)cc2)ccc1F` (stereo not drawn) [Compound 5, (E)-N-(3′-(1-((5-cyclopropyl-1H-pyrazol-3-yl)amino)-1-oxopropan-2-yl)-4′-fluoro-[1,1′-biphenyl]-4-yl)-4-(dimethylamino)but-2-enamide], for which the inhibition at 10 µM was found to be 80% and the pIC50 is < 7.00.

As for `CC(C)C(C(=O)Nc1cc(C2CC2)[nH]n1)c1cccc(-c2ccc(NC(=O)/C=C/CN3CCOCC3)nc2)c1` (stereo not drawn) [Compound 44, (E)-N-(5-(3-(1-((5-cyclopropyl-1H-pyrazol-3-yl)amino)-3-methyl-1-oxobutan-2-yl)phenyl)pyridin-2-yl)-4-morpholinobut-2-enamide], the inhibition at 10 µM came to 99% and the pIC50 was > 7.60.

On to `CC(C(=O)Nc1cc(C2CC2)[nH]n1)c1cccc(-c2ccc(NC(=O)/C=C/CN3CC[C@H](F)C3)nc2)c1` (single isomer, unassigned) [Compound 47], for which the inhibition at 10 µM was 91% and the pIC50 was > 7.60.

In the case of `CC(C(=O)Nc1cc(C2CC2)n(C)n1)c1cccc(-c2ccc(NC(=O)/C=C/CN(C)C)cc2)c1` (stereo not drawn) [Compound 6, (E)-N-(3′-(1-((5-cyclopropyl-1-methyl-1H-pyrazol-3-yl)amino)-1-oxopropan-2-yl)-[1,1′-biphenyl]-4-yl)-4-(dimethylamino)but-2-enamide], the inhibition at 10 µM is 0%.

Consider `CC(C(=O)Nc1n[nH]c2ccccc12)c1cccc(-c2ccc(NC(=O)/C=C/CN(C)C)cc2)c1` (stereo not drawn) [Compound 91, (E)-N-(3′-(1-((1H-indazol-3-yl)amino)-1-oxopropan-2-yl)-[1,1′-biphenyl]-4-yl)-4-(dimethylamino)but-2-enamide], for which the inhibition at 10 µM is 84% and the pIC50 was < 7.00.

Consider `CC(C(=O)Nc1cc(C2CC2)[nH]n1)c1cccc(C2CCN(C(=O)/C=C/CN(C)C)CC2)c1` (stereo not drawn) [Compound 85, (E)-N-(5-cyclopropyl-1H-pyrazol-3-yl)-2-(3-(1-(4-(dimethylamino)but-2-enoyl)piperidin-4-yl)phenyl)propanamide], for which the inhibition at 10 µM was 74% and the pIC50 is < 7.00.

For the compound `CC(C(=O)Nc1cc(C2CC2)[nH]n1)c1cccc(-c2cnc(NC(=O)/C=C/CN3CCOCC3)c(F)c2)c1` (stereo not drawn) [Compound 63, (E)-N-(5-(3-(1-((5-cyclopropyl-1H-pyrazol-3-yl)amino)-1-oxopropan-2-yl)phenyl)-3-fluoropyridin-2-yl)-4-morpholinobut-2-enamide], the inhibition at 10 µM turned out to be 98% and the pIC50 was 7.00 to 7.60.

Regarding `C=CC(=O)Nc1ccc(-c2cccc(C(C)C(=O)Nc3cc(C4CC4)[nH]n3)c2)cn1` (single isomer, unassigned) [Compound 22, N-(5-(3-(1-((5-cyclopropyl-1H-pyrazol-3-yl)amino)-1-oxopropan-2-yl)phenyl)pyridin-2-yl)acrylamide], the “% inhibition @ 10 μM” value is 97% and the negative logarithm of the IC50 (pIC50) is > 7.60.

On to `C=CC(=O)Nc1ccc(-c2cccc(C(C)C(=O)Nc3cc(C4CC4)[nH]n3)c2)cn1` (single isomer, unassigned) [Compound 21, N-(5-(3-(1-((5-cyclopropyl-1H-pyrazol-3-yl)amino)-1-oxopropan-2-yl)phenyl)pyridin-2-yl)acrylamide], for which the inhibition at 10 µM came to 89% and the negative logarithm of the IC50 (pIC50) was < 7.00.

For the compound `COC[C@@H]1CCCN1C/C=C/C(=O)Nc1ccc(-c2cccc(C(C)C(=O)Nc3cc(C4CC4)[nH]n3)c2)cn1` (single isomer, unassigned) [Compound 71], the inhibition at 10 µM was determined as 81% and the negative logarithm of the IC50 (pIC50) is < 7.00.

For the compound `COC[C@@H]1CCCN1C/C=C/C(=O)Nc1ccc(-c2cccc(C(C)C(=O)Nc3cc(C4CC4)[nH]n3)c2)cn1` (single isomer, unassigned) [Compound 72], the “% inhibition @ 10 μM” value is listed as 98% and the pIC50 was > 7.60.

Take `CN(C)C/C=C/C(=O)Nc1ccc(C(=O)Nc2cccc(Nc3n[nH]c4ccccc34)c2)cc1` [Compound 89, (E)-N-(3-((1H-indazol-3-yl)amino)phenyl)-4-(4-(dimethylamino)but-2-enamido)benzamide]: the inhibition at 10 µM was 45%.

Take `CC(C(=O)Nc1cc(C2CC2)[nH]n1)c1cccc(-c2ccc(NC(=O)/C=C/CN3CCC(F)C3)nc2)c1` (stereo not drawn) [Compound 45, (E)-N-(5-(3-(1-((5-cyclopropyl-1H-pyrazol-3-yl)amino)-1-oxopropan-2-yl)phenyl)pyridin-2-yl)-4-(3-fluoropyrrolidin-1-yl)but-2-enamide]: the inhibition at 10 µM was 89% and the negative-log IC50 (pIC50) was > 7.60.

Take `CC(C(=O)Nc1cc(C2CC2)[nH]n1)c1cccc(-c2ccc(NC(=O)/C=C/CN(C)C)c(F)n2)c1` (stereo not drawn) [Compound 38, (E)-N-(6-(3-(1-((5-cyclopropyl-1H-pyrazol-3-yl)amino)-1-oxopropan-2-yl)phenyl)-2-fluoropyridin-3-yl)-4-(dimethylamino)but-2-enamide]: the inhibition at 10 µM was 94% and the negative logarithm of the IC50 (pIC50) was < 7.00.

As for `C=CC(=O)Nc1ccc(-c2cccc(C(C)C(=O)Nc3cc(C4CC4)[nH]n3)c2)nc1` (stereo not drawn) [Compound 24, N-(6-(3-(1-((5-cyclopropyl-1H-pyrazol-3-yl)amino)-1-oxopropan-2-yl)phenyl)pyridin-3-yl)acrylamide], the inhibition at 10 µM turned out to be 96% and the negative-log IC50 (pIC50) is 7.00 to 7.60.

For `C=CC(=O)Nc1cncc(-c2cccc(C(C)C(=O)Nc3cc(C4CC4)[nH]n3)c2)n1` (stereo not drawn) [Compound 79, N-(6-(3-(1-((5-cyclopropyl-1H-pyrazol-3-yl)amino)-1-oxopropan-2-yl)phenyl)pyrazin-2-yl)acrylamide], the inhibition at 10 µM worked out at 102% and the pIC50 is > 7.60.

Regarding `CC(C(=O)Nc1cc(C(C)(C)C)[nH]n1)c1cccc(-c2ccc(NC(=O)/C=C/CN(C)C)cc2)c1` (stereo not drawn) [Compound 9, (E)-N-(3′-(1-((5-(tert-butyl)-1H-pyrazol-3-yl)amino)-1-oxopropan-2-yl)-[1,1′-biphenyl]-4-yl)-4-(dimethylamino)but-2-enamide], the inhibition at 10 µM turned out to be 60% and the negative-log IC50 (pIC50) is < 7.00.

`C=CC(=O)Nc1ccc(-c2cccc(C(C)C(=O)Nc3cc(C4CC4)[nH]n3)c2)cn1` (stereo not drawn) [Compound 20, N-(5-(3-(1-((5-cyclopropyl-1H-pyrazol-3-yl)amino)-1-oxopropan-2-yl)phenyl)pyridin-2-yl)acrylamide]: the inhibition at 10 µM was determined as 100% and the pIC50 was > 7.60.

`CC(C(=O)Nc1cc(C2CC2)[nH]n1)c1cccc(-c2ccc(NC(=O)/C=C/CN3CCCCC3)nc2)c1` (stereo not drawn) [Compound 40, (E)-N-(5-(3-(1-((5-cyclopropyl-1H-pyrazol-3-yl)amino)-1-oxopropan-2-yl)phenyl)pyridin-2-yl)-4-(piperidin-1-yl)but-2-enamide]: the inhibition at 10 µM came out at 100% and the negative logarithm of the IC50 (pIC50) is > 7.60.

Consider `CC(C(=O)Nc1cc(C2CC2)[nH]n1)c1cccc(-c2ccc(NC(=O)/C=C/CN3CC[C@H](F)C3)c(F)c2)c1` (stereo partly drawn) [Compound 80, (E)-N-(3′-(1-((5-cyclopropyl-1H-pyrazol-3-yl)amino)-1-oxopropan-2-yl)-3-fluoro-[1,1′-biphenyl]-4-yl)-4-((S)-3-fluoropyrrolidin-1-yl)but-2-enamide], for which the inhibition at 10 µM worked out at 95% and the pIC50 is 7.00 to 7.60.

Consider `CC(C(=O)Nc1cc(C2CC2)[nH]n1)c1cccc(C2=CCN(C(=O)/C=C/CN(C)C)CC2)c1` (stereo not drawn) [Compound 84, (E)-N-(5-cyclopropyl-1H-pyrazol-3-yl)-2-(3-(1-(4-(dimethylamino)but-2-enoyl)-1,2,3,6-tetrahydropyridin-4-yl)phenyl)propanamide], for which the inhibition at 10 µM stood at 88% and the negative logarithm of the IC50 (pIC50) was < 7.00.

Regarding `CC(C(=O)Nc1cc(C2CC2)[nH]n1)c1cccc(-c2ccc(NC(=O)/C=C/CN3CCC(C#N)C3)nc2)c1` (stereo not drawn) [Compound 78, (E)-4-(3-cyanopyrrolidin-1-yl)-N-(5-(3-(1-((5-cyclopropyl-1H-pyrazol-3-yl)amino)-1-oxopropan-2-yl)phenyl)pyridin-2-yl)but-2-enamide], the inhibition at 10 µM is 100% and the negative logarithm of the IC50 (pIC50) was 7.00 to 7.60.
